Reference: PMC11203719, “Mts1 (S100A4) and Its Peptide Demonstrate Cytotoxic Activity in Complex with Tag7 (PGLYRP1) Peptide” (International Journal of Molecular Sciences, 2024)
Entries after “also recorded” stand apart in the source; their conditions may differ. No end group written: not given here.

Tests used:
Mts1 (S100A4) = biological target: T1, Mts1 (S100A4) (Homo sapiens, UniProt P26447); assay: Microscale thermophoresis, binding to labeled Mts1
T1 construct: a functional fragment of the Tag7 protein (PGLYRP1) and a full-sized Mts1 protein (S100A4); His tag (from vector pQE-30; purified on HisTrap FF) (N); made in house; host or cells: Escherichia coli M15 (pREP4)
Protocol: To evaluate the protein–protein interaction of Mts1 with Tag7 and with peptides, 17.1, 17.1A, and 17.1B, a quantitative microscale thermophoresis method was used to reliably determine the parameters of the interaction of protein complexes.
To study the dissociation constant, purified Mts1 was fluorescently labeled using Alexa Fluor 633 (Invitrogen, Eugene, OR, USA) in accordance with the manufacturer’s protocol. Mts1 (200 nM) was preincubated for 20 min with Tag7-Mts1, 17.1-Mts1, 17.1A-Mts1, and 17.1B-Mts1 in the dark at room temperature in 16 different concentrations, obtained by sequential dilution. To study the dissociation constant of Tag7 with M7, Tag7 was fluorescently labeled using Alexa Fluor 488 (Invitrogen, Eugene, OR, USA) in accordance with the manufacturer’s protocol. Tag7 (200 nM) was preincubated for 20 min with M7 in the dark at room temperature in 16 different concentrations, obtained by sequential dilution. The samples were loaded into glass capillaries of Monolith NT Capillaries (NanoTemper Technologies GmbH, München, Germany) and analyzed by thermophoresis on a Monolith NT 115 nanotemperature apparatus (10% IR laser power). The signal quality was monitored using a NanoTemper Monolith device to detect possible ligand autofluorescence, deposition, aggregation, or ligand-induced changes in the photobleaching rate. The experiments were carried out in at least three repetitions and processed using affinity analysis software (MO Control v.1.6.1, NanoTemper Technologies GmbH, München, Germany).

Hsp70 = conditions: ref [19]; cited from earlier work
Text: Structural and functional analyses of Tag7 made it possible to localize the epitope of this protein necessary for interaction with TNFR1 and Hsp70. […] It was also possible to separate the activities of this bifunctional peptide.

[1] = test system: TNFR1 on the surface of HEK293T cells; assay: Cross-linking (BS3) to TNFR1 on cell surface, anti-TNFR1 pull-down, Western blot; format: binding, human; conditions: 17.1-Mts1 at 1 nM, anti-TNFR1 beads
Protocol: We investigated the ability of peptide 17.1 to form a complex with Mts1 and TNFR1 on the cell surface. The 17.1-Mts1 complex was added to HEK293T cells with TNFR1s on their surface. After incubation, a crosslinking agent (BS^3) was added, forming covalent bonds between molecules located at a distance of less than 1 nm at the time of addition. Next, the cells were lysed, and membrane proteins were precipitated using anti-TNFR1 antibodies conjugated with magnetic beads. The obtained material was separated using SDS electrophoresis and detected using Western blotting with polyclonal antibodies to Mts1 or Tag7.
A column with CNBr-activated Sepharose 4B (GE Healthcare, Chicago, IL, USA) conjugated with 17.1 was prepared as described in accordance with the manufacture’s protocol. The recombinant Mts1 protein was loaded into a column with 17.1-Sepharose 4B. Then, the material was extensively washed with PBS plus 0.5 M NaCl, followed by PBS, eluted with 0.25 M triethylamine, pH 12. The eluted material was resolved using 12% SDS-PAGE and applied to a nitro-cellulose membrane. […] The chemiluminescence was recorded using iBright (Thermo Fisher Scientific, Boston, MA, USA). […] Protein concentrations were quantified using a Bradford assay kit (Thermo Fisher Scientific, Carlsbad, CA, USA). […]

Tag7-Hsp70 complex = conditions: excess of Mts1; ref [22]; cited from earlier work
Text: (§1) During a study on the anticancer effect of the Tag7-Hsp70 complex on metastatic cells, the second partner of the Tag7 protein was identified. Tag7 interacts with Mts1 (metastasin 1, S100A4), a member of the S-100 family involved in metastasis processes. Both proteins form the Tag7-Mts1 chemotactic complex.

TNFR1 = conditions: cited from earlier work; for inhibition of cytotoxic effect of TNFR1 ligands: ref [19]
Text: (§2) We investigated developing cytotoxic processes during TNFR1 activation and found two new proteins interacting with this receptor: the immune system regulator PGLYRP1 (Tag7) and DNA-hydrolyzing autoantibodies. […] For the manifestation of Tag7 cytotoxic action, the presence of a coactivator, stimulating cytotoxicity, is necessary. During antitumor studies, a cytotoxic complex released by human ... || Structural and functional analyses of Tag7 made it possible to localize the epitope of this protein necessary for interaction with TNFR1 and Hsp70. […] It was also possible to separate the activities of this bifunctional peptide.

L929 cells = assay: Cytotoxicity, L929 cells; format: cell-based; conditions: complexes of Mts1 with 17.1A, 17.1B or full-sized Tag7; L929 cells (Figure 2b), 24 h, n = 5
Mts1 = assay: Affinity chromatography on 17.1-Sepharose with Western blot for Mts1; format: binding, human; conditions: recombinant Mts1 100 ng, 17.1 immobilized on CNBr-activated Sepharose; eluted 0.25 M triethylamine; Mts1 eluted as tetramer
Protocol: In the previous section, we noted the competition between Hsp70 and Mts1 for the binding center of Tag7. We have shown that Hsp70 interacts with peptide 17.1, which is located at the C-terminal region of the polypeptide chain Tag7. […] The recombinant Mts1 protein (100 ng total protein, 0.1 mg/mL) was applied to CNBr-activated Sepharose with immobilized peptide 17.1. The bound proteins were eluted and analyzed using SDS-PAGE and a subsequent Western blot test with specific anti-Mts1 antibodies. It was shown that Mts1 is present in the eluate in the form of a tetramer (Figure 1).
A column with CNBr-activated Sepharose 4B (GE Healthcare, Chicago, IL, USA) conjugated with 17.1 was prepared as described in accordance with the manufacture’s protocol. The recombinant Mts1 protein was loaded into a column with 17.1-Sepharose 4B. Then, the material was extensively washed with PBS plus 0.5 M NaCl, followed by PBS, eluted with 0.25 M triethylamine, pH 12. The eluted material was resolved using 12% SDS-PAGE and applied to a nitro-cellulose membrane. […] The chemiluminescence was recorded using iBright (Thermo Fisher Scientific, Boston, MA, USA). […] Protein concentrations were quantified using a Bradford assay kit (Thermo Fisher Scientific, Carlsbad, CA, USA). […]

[2] = test system: TNFR1-positive tumor cells; conditions: cited from earlier work
Text: as §2

lymphocytes = conditions: ref [22]; cited from earlier work
Text: as §1

T1 sequence (P26447 whole entry, the tested form may be a part): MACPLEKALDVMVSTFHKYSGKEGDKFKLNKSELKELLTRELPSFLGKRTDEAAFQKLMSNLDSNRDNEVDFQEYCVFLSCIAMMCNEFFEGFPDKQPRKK

HRDVQRT [17.1B]
affinity for Mts1 (in words) (Mts1 (S100A4)): highly specific
affinity for Hsp70 (Hsp70): high affinity for Hsp70

Mts1: recombinant human Mts1 (S100A4) protein
interaction with TNFR1 on cell surface [1]: binds to the TNFR1 receptor on the cell surface
displacement of Hsp70 from Tag7-Hsp70 complex (Tag7-Hsp70 complex): displaces Hsp70 from the Tag7-Hsp70 complex

RSNYVLKG [17.1A]
inhibition of cytotoxic effect of TNFR1 ligands (TNFR1): responsible for binding to TNFR1 and inhibiting cytotoxicity
affinity for Mts1 (in words) (Mts1 (S100A4)): significantly higher apparent Kd; also recorded: low affinity
cytotoxic activity in complex with Mts1 (L929 cells): does not contribute to the appearance of cytotoxicity

SNYVLKGHRDVQ [17.1]
binding to Mts1 (Mts1): 17.1 binds to Mts
inhibition of cytotoxic effect of TNFR1 ligands (TNFR1): inhibits the cytotoxic effect of TNFR1 ligands
death of tumor cells in combination with Hsp70 ([2]; in combination with Hsp70, ref [19]): induces the death of tumor cells
affinity for Mts1 (in words) (Mts1 (S100A4)): highly specific

Tag7-Mts1: complex of full-sized Tag7 with Mts1
cytotoxic activity ([2]; previous study, ref [22]): no cytotoxic activity
chemotactic activity (lymphocytes): induces the movement of lymphocytes along the concentration gradient of this complex
Kd (Mts1 (S100A4); first-named partner titrated (16 concentrations) to Alexa Fluor 633-labeled Mts1 (200 nM), 20 min, room temperature, at least three repetitions, mean ± SD): 9.21 ± 1.5 µM

Tag7: recombinant full-size Tag7 protein (PGLYRP1)
inhibition of cytotoxic activity of TNF and other TNFR1 ligands (TNFR1; previous work, reference not clearly printed): acts as an inhibitor of the cytotoxic activity of TNF and other TNFR1 ligands
affinity for Mts1 (in words) (Mts1 (S100A4)): significantly higher apparent Kd
cytotoxic activity in complex with Mts1 (L929 cells): does not have a cytotoxic effect on cells; also recorded: does not form a cytotoxic complex with the Mts1 protein
